Assay results: the NIST ThermoML archive (doi:10.1007/s10765-019-2537-x)
“And” between values parts separate entries of the source, which are not always exact repeats. Equal entries are not always repeated.

Conditions: Liquid, transient hot wire

CCCCCCCCCCCCCCC [pentadecane]
Conditions	thermal conductivity
318.28 K, 1420 kPa	0.1369 W/m/K
318.31 K, 1420 kPa	0.138 W/m/K
318.36 K, 15320 kPa	0.1419 W/m/K
318.4 K, 1420 kPa	0.1376 W/m/K
318.4 K, 21080 kPa	0.1429 W/m/K
318.42 K, 21080 kPa	0.1432 W/m/K
318.44 K, 15320 kPa	0.1408 W/m/K and 0.1415 W/m/K
318.45 K, 21080 kPa	0.1432 W/m/K
318.49 K, 5220 kPa	0.1386 W/m/K
318.5 K, 10340 kPa	0.1403 W/m/K
318.52 K, 5220 kPa	0.1382 W/m/K
318.54 K, 10340 kPa	0.139 W/m/K
318.56 K, 10340 kPa	0.1394 W/m/K
318.59 K, 5220 kPa	0.1377 W/m/K
336.96 K, 20240 kPa	0.1393 W/m/K
337.02 K, 15360 kPa	0.1403 W/m/K
337.04 K, 5660 kPa	0.1338 W/m/K
337.09 K, 5660 kPa	0.1353 W/m/K
337.1 K, 20240 kPa	0.1399 W/m/K
337.13 K, 20240 kPa	0.1401 W/m/K
337.14 K, 5660 kPa	0.1361 W/m/K
337.14 K, 15360 kPa	0.1368 W/m/K
337.18 K, 1270 kPa	0.1332 W/m/K
337.2 K, 15360 kPa	0.1372 W/m/K
337.22 K, 1270 kPa	0.132 W/m/K
337.24 K, 1270 kPa	0.1338 W/m/K
337.25 K, 10510 kPa	0.1368 W/m/K
337.28 K, 10510 kPa	0.1356 W/m/K
356.45 K, 5190 kPa	0.1334 W/m/K
356.57 K, 5190 kPa	0.1301 W/m/K
356.61 K, 5190 kPa	0.131 W/m/K
356.68 K, 10160 kPa	0.1329 W/m/K
356.7 K, 1040 kPa	0.1284 W/m/K
356.71 K, 10160 kPa	0.1307 W/m/K
356.72 K, 10160 kPa	0.1314 W/m/K
356.74 K, 15190 kPa	0.1321 W/m/K
356.75 K, 1040 kPa	0.13 W/m/K
356.75 K, 20580 kPa	0.1355 W/m/K
356.79 K, 20580 kPa	0.1377 W/m/K
356.8 K, 15190 kPa	0.132 W/m/K
356.83 K, 15190 kPa	0.1341 W/m/K
356.9 K, 20580 kPa	0.1346 W/m/K
377.3 K, 5560 kPa	0.1275 W/m/K
377.31 K, 5560 kPa	0.1262 W/m/K
377.33 K, 10240 kPa	0.1296 W/m/K
377.39 K, 5560 kPa	0.1272 W/m/K
377.4 K, 10240 kPa	0.1302 W/m/K
377.44 K, 1420 kPa	0.1248 W/m/K
377.46 K, 10240 kPa	0.1284 W/m/K
377.52 K, 20480 kPa	0.131 W/m/K
377.53 K, 1420 kPa	0.1234 W/m/K
377.6 K, 1420 kPa	0.1238 W/m/K
377.6 K, 20480 kPa	0.1304 W/m/K
377.61 K, 20480 kPa	0.1326 W/m/K
377.62 K, 15010 kPa	0.1288 W/m/K
377.7 K, 15010 kPa	0.1284 W/m/K
377.73 K, 15010 kPa	0.1274 W/m/K
396.74 K, 20460 kPa	0.1297 W/m/K
396.83 K, 20460 kPa	0.1291 W/m/K
397.07 K, 20460 kPa	0.1276 W/m/K
397.22 K, 10360 kPa	0.1224 W/m/K
397.22 K, 15080 kPa	0.1248 W/m/K
397.24 K, 10360 kPa	0.1252 W/m/K
397.31 K, 15080 kPa	0.1229 W/m/K
397.32 K, 15100 kPa	0.1242 W/m/K
397.38 K, 10410 kPa	0.1225 W/m/K
397.42 K, 1330 kPa	0.1182 W/m/K
397.44 K, 5360 kPa	0.1209 W/m/K
397.47 K, 1330 kPa	0.1188 W/m/K
397.49 K, 1330 kPa	0.1165 W/m/K
397.52 K, 5360 kPa	0.1202 W/m/K
397.57 K, 5360 kPa	0.1176 W/m/K
417.11 K, 5290 kPa	0.121 W/m/K
417.13 K, 20250 kPa	0.1228 W/m/K
417.16 K, 15230 kPa	0.1204 W/m/K
417.19 K, 15230 kPa	0.1227 W/m/K
417.26 K, 15230 kPa	0.1223 W/m/K
417.27 K, 10550 kPa	0.1227 W/m/K
417.3 K, 20250 kPa	0.1195 W/m/K
417.36 K, 1130 kPa	0.1134 W/m/K
417.37 K, 1130 kPa	0.115 W/m/K
417.47 K, 10430 kPa	0.1185 W/m/K
417.48 K, 1130 kPa	0.1123 W/m/K
417.5 K, 10430 kPa	0.1178 W/m/K
436.73 K, 20320 kPa	0.1172 W/m/K
436.78 K, 20320 kPa	0.1187 W/m/K
436.9 K, 10760 kPa	0.1134 W/m/K
